# Assays:
# recombinant BNIP3 = biological target: T1, recombinant BNIP3 (Mus musculus, UniProt O55003); experiment: BNIP3/peptide microarray (truncation, alanine scan, substitution analysis); format: binding; conditions: alanine scan and substitution analyses of BNIP3 1-20
# T1 construct: purchased Cusabio (obtained via Hölzel Diagnostika, Cologne, Germany) CSB-CF002766Mo-50
# [1] = tested on: wild-type mice subjected to myocardial I/R; experiment: In vivo murine myocardial I/R: infarct size per area at risk (Evans blue/TTC); set-up: species or system mouse; conditions: 30 min ischemia, 24 hours reperfusion
# caspase-3 = experiment: Caspase-3 activity in the AAR after I/R; format: in vivo, mouse; conditions: 1 hour reperfusion
# BNIP3 = experiment: Mitochondrial BNIP3 level in the AAR after I/R (immunoblot); format: in vivo, mouse; conditions: 10 minutes reperfusion
# [2] = tested on: human cardiomyocytes (HCM); experiment: DOX induced mitochondrial ROS generation in human cardiomyocytes; conditions: 10 μM DOX alone or with peptide co-administered; four and 22 hours
# mitochondria = experiment: DOX treatment in vivo: mitochondrial OCR (Seahorse mitochondrial stress test)
# wild-type mice [3] = experiment: DOX treatment in vivo: cardiac injury markers (cTnI, CK, LDH, BNP); set-up: species or system mouse; conditions: DOX alone or with coadministration of PepB
# autophagic flux = experiment: DOX treatment in vivo: autophagic flux (LC3, p62, BNIP3 western blot, chloroquine); conditions: DOX alone or with PepB
# [4] = tested on: human cardiomyocytes (HCM); experiment: DOX induced mitochondrial calcium ion overload in human cardiomyocytes; conditions: 10 μM DOX alone or with peptide co-administered; four hours
# wild-type mice [5] = experiment: DOX treatment in vivo: serial echocardiography; conditions: DOX alone or in combination with PepB
# From the text: Next, we explored the effect of DOX treatment on cardiac function assessed with echocardiographic measurements at three time points (TO, T1 16 days, T2 42 days) (FIG. 19).
# [6] = tested on: human cardiomyocytes (HCM); experiment: DOX induced mPTP opening in human cardiomyocytes (Calcein-AM); conditions: 10 μM DOX alone or with peptide co-administered
# [7] = tested on: human cardiomyocytes (HCM); experiment: DOX induced mitochondrial membrane potential destabilization in human cardiomyocytes; conditions: 10 μM DOX alone or with peptide co-administered; four and 22 hours
# T1 sequence (O55003 whole entry, the tested form may be a part): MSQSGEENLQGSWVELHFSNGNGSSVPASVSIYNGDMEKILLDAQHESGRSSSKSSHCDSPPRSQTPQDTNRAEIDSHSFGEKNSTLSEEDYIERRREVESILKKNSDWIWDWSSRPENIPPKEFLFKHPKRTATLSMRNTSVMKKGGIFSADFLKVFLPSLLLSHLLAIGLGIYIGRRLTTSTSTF
molecule,measurement,setting,value
VELHFSN,BNIP3 binding (microarray signal),recombinant BNIP3,substantially higher luminescence
"GRKKRRQRRRPQLDAQHESGRSSSKSSHCDSP [TATBNIP3-20C, control peptide: HIV-1 PTD and 20 amino acids derived from BNIP3 42-61]",infarct size compared with vehicle treatment,[1]; injected 5 minutes before reperfusion,no difference
"GRKKRRQRRRPQMSQSGEENLQGSWVELHFSN [TAT-BNIP3-20A, HIV-1 PTD and 20 amino acids derived from BNIP3 1-20]",reduction in infarct size relative to treatment with vehicle,[1]; peptide injected 5 minutes before reperfusion,41%
same,caspase-3 activity,caspase-3,markedly reduced caspase-3 activity
same,BNIP3 translocation to the mitochondria,BNIP3,prevented BNIP3 translocation
"COc1cccc2c1C(=O)c1c(O)c3c(c(O)c1C2=O)C[C@@](O)(C(=O)CO)C[C@@H]3O[C@H]1C[C@H](N)[C@H](O)[C@H](C)O1 [DOX, doxorubicin]",mitochondrial ROS generation,[2],triggered
same,basal respiration,mitochondria; DOX alone or with PepB,affected
same,maximal respiration,mitochondria; DOX alone or with PepB,affected
same,respiratory reserve capacity (OCR),mitochondria; DOX alone or with PepB,inhibited
same,Complex II-stimulated respiration,mitochondria; DOX alone or with PepB co-treatment,inhibition
same,"cardiomyocyte death, cardiac troponin I (cTnl) levels",wild-type mice [3],high cardiac troponin I (cTnl) levels
same,BNIP3 accumulation,autophagic flux,triggered p62 and BNIP3 accumulation
same,p62 accumulation,autophagic flux,triggered p62 and BNIP3 accumulation
same,mitochondrial calcium ion overload,[4],induced
same,heart rate,wild-type mice [5],unaffected
same,mPTP opening,[6],activated
same,mitochondrial membrane potential,[7],disrupted
